Structures are written as SMILES. Counter-ions that a name gives are not always drawn.

The test system of one assay is pERK in MKN1 cells. Kind of assay: pERK inhibition, In-Cell Western (LI-COR Odyssey), MKN1 cells. Format: cell-based. The following applies: Homo sapiens, MKN-1, Table B1; MKN1 or H358 cells (table does not say which); 0.5-1 hour incubation; read-out: IC50 (nM), pERK inhibition. The method, then: This Example illustrates that exemplary compounds of the present invention prevent KRas-mediated GTP nucleotide exchange mediated by SOS1 to inhibit KRas activity thereby inhibiting the generation of the downstream effector pERK.
MKN1 cells (15,000/w) or H358 (30,000/w) were seeded in a black clear flat bottom 96-well cell culture plate (Corning, #3904) and incubated at 37° C. overnight. Assay day 1, cells were dosed with compounds of Formula (I) with a 10 μm starting concentration and serially diluted 3× for a total of 9 concentrations. The cells were incubated for approximately 0.5-1 hour with the compounds solubilized in DMSO at 37° C. Cells were immediately fixed by adding 50 μL of 4% formaldehyde to all wells in a fume hood and the plates were incubated for 20 minutes at room temperature. The formaldehyde was discarded from the plates and 150 μL of ice-cold methanol was added to permeabilize the cells for 10 minutes at −20° C. The methanol was discarded from each of the plates and any liquid remaining in the plate by tapping the plate against paper towels. Cells were then blocked with 150 μL of Odyssey blocking buffer (LI-COR Biosciences #927-50010) using 0.05% Tween for 1 hour at room temperature on a shaker. The blocking buffer was discarded and 50 μL of primary antibodies pERK (cell signaling Technology #9101L; Rabbit, 1:500) and GapDH (Millipore #MAB34; Mouse, 1:5000) diluted in Odyssey blocking buffer was added. The plates were incubated overnight at 4° C. on a shaker.
On Assay day 2, the primary antibody solution was removed. Each plate was washed 3× times with 150 μL of 1×PBST (PBS+0.1% Tween 20) and incubated with 50 μL of secondary antibodies: Anti-Rabbit (LI-COR Biosciences #926-32211) and Anti-Mouse (LI-COR Biosciences #68070) at 1:800 dilution in Odyssey blocking buffer with Tween at room temperature on a shaker for 2 hours (protected from light). The secondary antibody solution as removed and each plate was washed with PBST 3× times. Any liquid remaining was discarded and the plate was imaged using the Licor Odyssey machine according to the manufacturer's instruction, using a set focus length at 3 mm and both 800 nm and 700 nm filters. The GAPDH normalized scan values for each well were divided by the average of vehicle wells to get the % of pERK inhibition. The IC50 values were then calculated with the Graph pad Prism software.
Regarding `Cc1c(C#N)cccc1[C@@H](C)Nc1nnc(C)c2cnc(N3CCc4nn(C)cc4C3)cc12` [Example P-51, (R)-2-methyl-3-(1-((4-methyl-7-(2-methyl-2,4,6,7-tetrahydro-5H-pyrazolo[4,3-c]pyridin-5-yl)pyrido[3,4-d]pyridazin-1-yl)amino)ethyl)benzonitrile], the IC50 is 120 nM. Consider `Cc1c(C#N)cccc1[C@@H](C)Nc1nnc(C)c2c(C)nc(N3CCN(C)CC3)cc12` [Example P-189, (R)-3-(1-((4,5-dimethyl-7-(4-methylpiperazin-1-yl)pyrido[3,4-d]pyridazin-1-yl)amino)ethyl)-2-methylbenzonitrile], for which the IC50 is 57 nM. For `Cc1c(C#N)cccc1[C@@H](C)Nc1nnc(C)c2cnc(N3CCC34CN(CCCF)C4)cc12` [Example P-228, (R)-3-(1-((7-(6-(3-fluoropropyl)-1,6-diazaspiro[3.3]heptan-1-yl)-4-methylpyrido[3,4-d]pyridazin-1-yl)amino)ethyl)-2-methylbenzonitrile], the IC50 stood at 68.4 nM.

The assay is the same for the next values; noted with them: Homo sapiens, MKN-1, Table B; MKN1 or H358 cells (table does not say which); 0.5-1 hour incubation; read-out: IC50 (nM), pERK inhibition.
For `Cc1c(C#N)cccc1[C@@H](C)Nc1nnc(C)c2cc(Cl)c(N3CCOCC3)cc12` [7-2, (R)-3-(1-((6-chloro-4-methyl-7-morpholinophthalazin-1-yl)amino)ethyl)-2-methylbenzonitrile], the IC50 worked out at 286 nM. As to `Cc1nnc(N[C@H](C)c2cccc(C(F)(F)F)c2F)c2cc(N(C)[C@H]3CCN(C)C3)ncc12` [Example 1-28, N^1-((R)-1-(2-fluoro-3-(trifluoromethyl)phenyl)ethyl)-N^7,4-dimethyl-N^7-((S)-1-methylpyrrolidin-3-yl)pyrido[3,4-d]pyridazine-1,7-diamine], the IC50 was 52.3 nM. Regarding `Cc1nnc(N[C@H](C)c2cccc(C(F)(F)F)c2F)c2cc(N(C)[C@@H]3CCN(C)C3)ncc12` [Example 1-29, N^1-((R)-1-(2-fluoro-3-(trifluoromethyl)phenyl)ethyl)-N^7,4-dimethyl-N^7-((R)-1-methylpyrrolidin-3-yl)pyrido[3,4-d]pyridazine-1,7-diamine], the IC50 was 41 nM. The same measure, in the same setting: as for `Cc1c(C#N)cccc1[C@@H](C)Nc1nnc(C)c2cnc(N[C@H]3CCN(C)C3)cc12` [Example 1-30, 2-methyl-3-((R)-1-((4-methyl-7-(((S)-1-methylpyrrolidin-3-yl)amino)pyrido[3,4-d]pyridazin-1-yl)amino)ethyl)benzonitrile], the figure is 250 nM; as for `Cc1c(C#N)cccc1[C@@H](C)Nc1nnc(C)c2cnc(N[C@@H]3CCN(C)C3)cc12` [Example 1-31, 2-methyl-3-((R)-1-((4-methyl-7-(((R)-1-methylpyrrolidin-3-yl)amino)pyrido[3,4-d]pyridazin-1-yl)amino)ethyl)benzonitrile], 128 nM. In the case of `Cc1c(C#N)cccc1[C@@H](C)Nc1nnc(C)c2cnc(N3CCN(C)C(=O)C3)cc12` [Example 1-45, (R)-2-methyl-3-(1-((4-methyl-7-(4-methyl-3-oxopiperazin-1-yl)pyrido[3,4-d]pyridazin-1-yl)amino)ethyl)benzonitrile], the IC50 came out at 99 nM. For the molecule `Cc1c(C#N)cccc1[C@@H](C)Nc1nnc(C)c2cnc(N3C[C@@H](C)N(C)[C@@H](C)C3)cc12` [Example 1-67, 2-methyl-3-((R)-1-((4-methyl-7-((3R,5S)-3,4,5-trimethylpiperazin-1-yl)pyrido[3,4-d]pyridazin-1-yl)amino)ethyl)benzonitrile], the IC50 is 121 nM. Same read-out and setting: as for `Cc1c(C#N)cccc1[C@@H](C)Nc1nnc(C)c2cnc(N3C[C@H](C)N(C)[C@@H](C)C3)cc12` [Example 1-68, 2-methyl-3-((R)-1-((4-methyl-7-((3S,5S)-3,4,5-trimethylpiperazin-1-yl)pyrido[3,4-d]pyridazin-1-yl)amino)ethyl)benzonitrile], the figure is 61 nM; as for `Cc1c(C#N)cccc1[C@@H](C)Nc1nnc(C)c2cnc(N3C[C@@H]4C[C@H]3CN4)cc12` [Example 1-75, 3-((R)-1-((7-((1S,4S)-2,5-diazabicyclo[2.2.1]heptan-2-yl)-4-methylpyrido[3,4-d]pyridazin-1-yl)amino)ethyl)-2-methylbenzonitrile], 590 nM. Take `Cc1c(C#N)cccc1[C@@H](C)Nc1nnc(C)c2cnc(N(C)[C@@H]3CCN(C(C)C)C3)cc12` [Example 1-78, 3-((R)-1-((7-(((R)-1-isopropylpyrrolidin-3-yl)(methyl)amino)-4-methylpyrido[3,4-d]pyridazin-1-yl)amino)ethyl)-2-methylbenzonitrile]: the half-inhibitory concentration (IC50) was 53.9 nM. For `Cc1c(C#N)cccc1[C@@H](C)Nc1nnc(C)c2cnc(N(C)[C@H]3CCN(C(C)C)C3)cc12` [Example 1-79, 3-((R)-1-((7-(((S)-1-isopropylpyrrolidin-3-yl)(methyl)amino)-4-methylpyrido[3,4-d]pyridazin-1-yl)amino)ethyl)-2-methylbenzonitrile], the IC50 was 75.2 nM. On the same count and under the same terms, next, `Cc1c(C#N)cccc1[C@@H](C)Nc1nnc(C)c2cnc(N3CC4(COC4)C3)cc12` [Example 1-80, (R)-2-methyl-3-(1-((4-methyl-7-(2-oxa-6-azaspiro[3.3]heptan-6-yl)pyrido[3,4-d]pyridazin-1-yl)amino)ethyl)benzonitrile]: 60.9 nM; `Cc1nnc(N[C@H](C)c2ccc(C#N)cc2F)c2cc(N3CCN(C)CC3)ncc12` [Example 1-98, (R)-3-fluoro-4-(1-((4-methyl-7-(4-methylpiperazin-1-yl)pyrido[3,4-d]pyridazin-1-yl)amino)ethyl)benzonitrile]: 186 nM.

`Cc1c(C#N)cccc1[C@@H](C)Nc1nnc(C)c2cc(F)c(N3CC(C)(N(C)C)C3)cc12` [Example 4-8, (R)-3-(1-((7-(3-(dimethylamino)-3-methylazetidin-1-yl)-6-fluoro-4-methylphthalazin-1-yl)amino)ethyl)-2-methylbenzonitrile]: the IC50 turned out to be 109 nM. As for `Cc1c(C#N)cccc1[C@@H](C)Nc1nnc(C)c2cc(F)c(N3CCOCC3)cc12` [Example 4-12, (R)-3-(1-((6-fluoro-4-methyl-7-morpholinophthalazin-1-yl)amino)ethyl)-2-methylbenzonitrile], the IC50 amounted to 120 nM.

In the case of `COc1cc2c(C)nnc(N[C@H](C)c3cccc(C#N)c3C)c2cc1O[C@H]1CCOC1` [Example 6-15, 3-((R)-1-((6-methoxy-4-methyl-7-(((S)-tetrahydrofuran-3-yl)oxy)phthalazin-1-yl)amino)ethyl)-2-methylbenzonitrile], the IC50 is 165 nM.

The same assay, now with this note: Homo sapiens, MKN-1, read-out: IC50 (nM), pERK inhibition.
Take `COc1cc2cnnc(N[C@H](C)c3cccc4ccccc34)c2cc1OC` [Example P-210, (R)-6,7-dimethoxy-N-(1-(naphthalen-1-yl)ethyl)phthalazin-1-amine formic acid salt]: the 50% inhibitory concentration (IC50) is greater than 10000 nM. Consider `Cc1c(Br)cccc1[C@@H](C)Nc1nnc(C)c2cnc(N3CCOCC3)cc12` [Example P-213, (R)-N-(1-(3-bromo-2-methylphenyl)ethyl)-4-methyl-7-morpholinopyrido[3,4-d]pyridazin-1-amine formic acid salt], for which the 50% inhibitory concentration (IC50) was 114 nM.

The target in the next assay is T1, recombinant human SOS1 polypeptide (amino acids 560-1049) (Homo sapiens, UniProt Q07889).
T1 construct: corresponding to amino acids 560-1049, expressed in E. Coli; made in house; host or cells: E. coli
T1 sequence (Q07889 560-1049): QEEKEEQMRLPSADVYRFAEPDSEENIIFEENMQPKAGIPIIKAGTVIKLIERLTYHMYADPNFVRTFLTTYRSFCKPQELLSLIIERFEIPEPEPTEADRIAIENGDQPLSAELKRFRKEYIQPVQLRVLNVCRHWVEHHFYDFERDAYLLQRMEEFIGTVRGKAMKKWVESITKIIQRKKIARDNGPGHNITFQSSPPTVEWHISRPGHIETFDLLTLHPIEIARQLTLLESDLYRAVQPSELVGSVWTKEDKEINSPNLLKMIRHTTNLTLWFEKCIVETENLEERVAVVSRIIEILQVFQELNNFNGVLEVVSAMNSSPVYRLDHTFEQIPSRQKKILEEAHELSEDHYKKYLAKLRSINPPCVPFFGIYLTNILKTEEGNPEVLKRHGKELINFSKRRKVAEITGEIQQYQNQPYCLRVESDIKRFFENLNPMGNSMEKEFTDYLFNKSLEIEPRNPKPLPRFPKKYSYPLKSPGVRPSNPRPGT
Put plainly: HTRF displacement assay: inhibition of labeled tracer binding to SOS1. The settings on record: Table A, Morrison equation for competitive binding. Background: TR-FRET usually uses a lanthanide donor and a delayed reading to cut background.
Method: The ability of a compound of Formula (I) to bind to SOS1 was measured using a HTRF displacement assay. […] After a 1-hour incubation at room temperature, the HTRF signal was measured using Clairostar plate reader (BMG Labtech) according to the manufacturer's instructions. Excitation filter EX-TR was used, and emission 1 was detected at 650-610 nm and emission 2 detected at 620-610 nm. The HTRF ratio was calculated using the formula: [emission 1/emission 2]*10000.
Background signals were calculated from well with a 10 μM inhibitor, known to inhibit 100% at that concentration. The background subtracted signals were converted to % binding relative to DMSO controls. Data were analyzed using XLFIT software (IDBS) using a Morrison equation for competitive binding and Ki's were generated compound of Formula (I).
With `Cc1nnc(N[C@H](C)c2cccc(C(F)F)c2F)c2cc(N3CCN(C)CC3)c(F)cc12` [Example 4-20, (R)-N-(1-(3-(difluoromethyl)-2-fluorophenyl)ethyl)-6-fluoro-4-methyl-7-(4-methylpiperazin-1-yl)phthalazin-1-amine], the Ki is 0.547 nM.

What is called IC50 is the midpoint of a concentration-inhibition curve. As a reminder, the Ki is the dissociation constant of the complex between target and ligand, obtained from inhibition or displacement.

The values are drawn from patent publication US20250059182A1, “SOS1 INHIBITORS” (Mirati Therapeutics, Inc., priority 2021, published 2025).
